From paper PMC2854587 (Nature, 2008)

Molecular target: T1, SrfTEII (surfactin type II thioesterase; SrfD, external thioesterase) (Bacillus subtilis, UniProt Q08788)
T1 sequence (Q08788 1-241): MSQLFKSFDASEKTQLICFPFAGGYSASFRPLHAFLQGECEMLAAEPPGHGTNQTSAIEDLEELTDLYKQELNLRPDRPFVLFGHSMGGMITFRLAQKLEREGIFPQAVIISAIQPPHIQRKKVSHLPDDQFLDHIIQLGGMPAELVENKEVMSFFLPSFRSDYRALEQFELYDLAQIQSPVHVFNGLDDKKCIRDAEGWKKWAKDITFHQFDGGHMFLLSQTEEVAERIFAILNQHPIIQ
Assay: […]-HSQC NMR titration
Format: binding
Settings: 296 K; 15N-enriched SrfTEII

`CCCCCCCCCCCCCC(=O)SCCNC(=O)CCNC(=O)[C@H](O)C(C)(C)COP(=O)(O)OP(=O)(O)OC[C@H]1O[C@@H](n2cnc3c(N)ncnc32)[C@H](O)[C@@H]1OP(=O)(O)O` [myristoyl-CoA] was tested, and the “15N-HSQC NMR titration (chemical shift perturbation)” value was “Interestingly, myristoyl-CoA also binds to SrfTEII”.
